Measured values: patent publication US10925876B2, “Methods for using triazolo-pyrazinyl soluble guanylate cyclase activators in fibrotic disorders” (Merck Sharp & Dohme Corp., priority 2016, dated 2021)

Molecular target: T1, sGC α1/β1 heterodimer (Homo sapiens, UniProt Q02108+Q02153)
T1 construct: expressed in transfected cells
T1 sequence (Q02108 1-690): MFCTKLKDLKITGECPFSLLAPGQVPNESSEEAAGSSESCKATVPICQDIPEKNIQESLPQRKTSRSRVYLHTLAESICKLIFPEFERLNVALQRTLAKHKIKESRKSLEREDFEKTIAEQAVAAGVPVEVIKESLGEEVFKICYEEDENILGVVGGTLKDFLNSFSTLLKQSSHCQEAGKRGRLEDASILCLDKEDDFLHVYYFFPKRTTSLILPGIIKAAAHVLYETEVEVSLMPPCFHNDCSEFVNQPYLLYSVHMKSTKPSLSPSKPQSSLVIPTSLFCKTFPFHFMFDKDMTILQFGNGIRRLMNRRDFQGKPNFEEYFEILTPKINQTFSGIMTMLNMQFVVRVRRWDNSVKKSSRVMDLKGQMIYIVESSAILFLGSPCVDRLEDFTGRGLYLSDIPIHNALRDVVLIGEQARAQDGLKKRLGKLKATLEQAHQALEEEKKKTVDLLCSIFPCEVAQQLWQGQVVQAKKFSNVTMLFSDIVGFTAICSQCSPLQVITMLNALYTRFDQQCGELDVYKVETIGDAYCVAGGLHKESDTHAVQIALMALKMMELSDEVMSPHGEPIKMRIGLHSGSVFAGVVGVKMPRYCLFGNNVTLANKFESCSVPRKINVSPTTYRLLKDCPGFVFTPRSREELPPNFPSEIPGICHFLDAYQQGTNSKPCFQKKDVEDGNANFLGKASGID
T1 sequence (Q02153 1-619): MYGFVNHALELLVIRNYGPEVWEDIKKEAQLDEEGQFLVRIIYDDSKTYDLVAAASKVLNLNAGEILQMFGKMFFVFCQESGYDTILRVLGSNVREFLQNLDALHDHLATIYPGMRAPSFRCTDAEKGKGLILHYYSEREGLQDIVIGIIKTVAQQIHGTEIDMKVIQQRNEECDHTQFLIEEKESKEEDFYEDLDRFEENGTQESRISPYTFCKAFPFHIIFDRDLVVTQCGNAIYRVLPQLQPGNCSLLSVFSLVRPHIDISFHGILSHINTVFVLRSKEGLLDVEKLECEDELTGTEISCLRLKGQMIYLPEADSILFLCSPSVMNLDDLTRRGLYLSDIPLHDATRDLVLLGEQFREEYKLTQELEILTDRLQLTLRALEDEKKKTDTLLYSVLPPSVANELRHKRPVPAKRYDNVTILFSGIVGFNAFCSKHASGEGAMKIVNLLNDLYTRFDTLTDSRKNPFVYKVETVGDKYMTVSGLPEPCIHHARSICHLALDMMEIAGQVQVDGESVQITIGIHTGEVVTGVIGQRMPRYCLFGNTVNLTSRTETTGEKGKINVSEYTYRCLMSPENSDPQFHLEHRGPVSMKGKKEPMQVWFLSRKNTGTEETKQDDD
Experiment: Cell-Based sGC Functional Assay (CASA Assay), cGMP generation in CHO-K1/sGC cells;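 note: reference Compound A is a published heme-dependent sGC activator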
Details: maximum cGMP production of Compound A set to 100% activation, read-out: % Act. (percent activation relative to Compound A)
Method in brief: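 CHO-K1 cells stably expressing human sGC α1/β1, 4×10^5/mL in EBSS with 5 mM MgCl2, 10 mM HEPES, 0.05% BSA, 0.5 mM IBMX, 2.5% DMSO; compounds 1 h at 37 °C ± 1 μM DETA-NO. cGMP by HTRF, expressed as % of reference Compound A maximum; IP and max fold induction from 4P fit.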

Emax	Compound
159%	CCCc1nc(-c2nc(N)c3c(n2)NC(=O)C3(C)c2ccc(Cl)cc2)cn2nc(C)nc12 (stereo not shown) [Example 93A, 4-amino-5-(4-chlorophenyl)-5-methyl-2-(2-methyl-8-propyl-[1,2,4]triazolo[1,5-a]pyrazin-6-yl)-5H-pyrrolo[2,3-d]pyrimidin-6(7H)-one]
144%	CC1(c2ncc(C(F)(F)F)cn2)C(=O)Nc2nc(-c3cn4ncnc4c(CCCC(F)(F)F)n3)nc(N)c21 (racemic) [Example 51B, 4-amino-5-methyl-2-(8-(4,4,4-trifluorobutyl)-[1,2,4]triazolo[1,5-a]pyrazin-6-yl)-5-(5-(trifluoromethyl)pyrimidin-2-yl)-5H-pyrrolo[2,3-d]pyrimidin-6(7H)-one]
164%	Nc1nc(-c2cn3ncnc3c(CCCC(F)(F)F)n2)nc2c1C(c1ccc(C(F)(F)F)cc1)(C1CC1)C(=O)N2 (stereo not shown) [Example 35A, 4-amino-5-cyclopropyl-2-(8-(4,4,4-trifluorobutyl)-[1,2,4]triazolo[1,5-a]pyrazin-6-yl)-5-(4-(trifluoromethyl)phenyl)-5H-pyrrolo[2,3-d]pyrimidin-6(7H)-one]
73%	CCCCc1nc(-c2nc(O)c3c(n2)NC(=O)C3(C)c2ccc(C(F)(F)F)cn2)cn2ncnc12 (stereo not shown) [Example 159B, 2-(8-butyl-[1,2,4]triazolo[1,5-a]pyrazin-6-yl)-4-hydroxy-5-methyl-5-(5-(trifluoromethyl)pyridin-2-yl)-5H-pyrrolo[2,3-d]pyrimidin-6(7H)-one]
126%	COc1cccc(Cc2nc(-c3nc(N)c4c(n3)NC(=O)[C@@]4(C)c3ccc(F)cc3)cn3ncnc23)c1 [Example 86B, (S)-4-amino-5-(4-fluorophenyl)-2-(8-(3-methoxybenzyl)-[1,2,4]triazolo[1,5-a]pyrazin-6-yl)-5-methyl-5H-pyrrolo[2,3-d]pyrimidin-6(7H)-one]
115%	CC1(c2ccc(Cl)cn2)C(=O)Nc2nc(-c3cn4ncnc4c(CCC(F)(F)C(F)(F)F)n3)ncc21 (stereo not shown) [Example 175A, 5-(5-chloropyridin-2-yl)-5-methyl-2-(8-(3,3,4,4,4-pentafluorobutyl)-[1,2,4]triazolo[1,5-a]pyrazin-6-yl)-5H-pyrrolo[2,3-d]pyrimidin-6(7H)-one]
133%	CC1(c2ccc(C(F)(F)F)cc2)C(=O)Nc2nc(-c3cn4ncnc4c(CCCC(F)(F)F)n3)nc(N)c21 (stereo not shown) [Example 24B, 4-amino-5-methyl-2-(8-(4,4,4-trifluorobutyl)-[1,2,4]triazolo[1,5-a]pyrazin-6-yl)-5-(4-(trifluoromethyl)phenyl)-5H-pyrrolo[2,3-d]pyrimidin-6(7H)-one]
109%	CC(C)Cc1nc(-c2nc(O)c3c(n2)NC(=O)[C@@]3(C)c2ccc(F)cc2)cn2ncnc12 [Example 163A, (S)-5-(4-fluorophenyl)-4-hydroxy-2-(8-isobutyl-[1,2,4]triazolo[1,5-a]pyrazin-6-yl)-5-methyl-5,7-dihydro-6H-pyrrolo[2,3-d]pyrimidin-6-one]

Further lines, the compound ahead of its results:

Compound	Emax
C[C@@]1(c2ccc(F)cc2)C(=O)Nc2nc(-c3cn4ncnc4c(Cc4cccc(O)c4)n3)nc(N)c21 [Example 113B, (S)-4-amino-5-(4-fluorophenyl)-2-(8-(3-hydroxybenzyl)-[1,2,4]triazolo[1,5-a]pyrazin-6-yl)-5-methyl-5H-pyrrolo[2,3-d]pyrimidin-6(7H)-one]	171%
CC1(c2ccc(F)cn2)C(=O)Nc2nc(-c3cn4ncnc4c(CCC(F)(F)F)n3)nc(N)c21 (stereo not shown) [Example 81B, 4-amino-5-(5-fluoropyridin-2-yl)-5-methyl-2-(8-(3,3,3-trifluoropropyl)-[1,2,4]triazolo[1,5-a]pyrazin-6-yl)-5H-pyrrolo[2,3-d]pyrimidin-6(7H)-one]	115%
CCCc1nc(-c2nc(N)c3c(n2)NC(=O)[C@@]3(C)c2ccc(F)cc2)cn2ncnc12 [Example 52A, (S)-4-amino-5-(4-fluorophenyl)-5-methyl-2-(8-propyl-[1,2,4]triazolo[1,5-a]pyrazin-6-yl)-5,7-dihydro-6H-pyrrolo[2,3-d]pyrimidin-6-one]	96%
O=C1Nc2nc(-c3cn4ncnc4c(CCC(F)(F)C(F)(F)F)n3)nc(O)c2C1(c1cncc(F)c1)C1CC1 (stereo not shown) [Example 124B, 5-cyclopropyl-5-(5-fluoropyridin-3-yl)-4-hydroxy-2-(8-(3,3,4,4,4-pentafluorobutyl)-[1,2,4]triazolo[1,5-a]pyrazin-6-yl)-5H-pyrrolo[2,3-d]pyrimidin-6(7H)-one]	88%
O=C1Nc2nc(-c3cn4ncnc4c(CCC(F)(F)C(F)(F)F)n3)nc(O)c2C1(c1ccc(F)c(F)c1)C1CC1 (stereo not shown) [Example 123A, 5-cyclopropyl-5-(3,4-difluorophenyl)-4-hydroxy-2-(8-(3,3,4,4,4-pentafluorobutyl)-[1,2,4]triazolo[1,5-a]pyrazin-6-yl)-5H-pyrrolo[2,3-b]pyrimidin-6(7H)-one]	78%
CCCCc1nc(-c2nc(O)c3c(n2)NC(=O)C3(C)c2ccc(C)cn2)cn2ncnc12 (stereo not shown) [Example 161B, 2-(8-butyl-[1,2,4]triazolo[1,5-a]pyrazin-6-yl)-4-hydroxy-5-methyl-5-(5-methylpyridin-2-yl)-5H-pyrrolo[2,3-d]pyrimidin-6(7H)-one]	95%
CC1(c2nnc(C3(F)CC3)o2)C(=O)Nc2nc(-c3cn4ncnc4c(CCCC(F)(F)F)n3)nc(N)c21 (stereo not shown) [Example 109A, 4-amino-5-(5-(1-fluorocyclopropyl)-1,3,4-oxadiazol-2-yl)-5-methyl-2-(8-(4,4,4-trifluorobutyl)-[1,2,4]triazolo[1,5-a]pyrazin-6-yl)-5H-pyrrolo[2,3-d]pyrimidin-6(7H)-one]	92%
CC1(c2nnc(C3CC3)o2)C(=O)Nc2nc(-c3cn4ncnc4c(CCCC(F)(F)F)n3)nc(N)c21 (stereo not shown) [Example 99A, 4-amino-5-(5-cyclopropyl-1,3,4-oxadiazol-2-yl)-5-methyl-2-(8-(4,4,4-trifluorobutyl)-[1,2,4]triazolo[1,5-a]pyrazin-6-yl)-5H-pyrrolo[2,3-d]pyrimidin-6(7H)-one]	113%
CCCCc1nc(-c2nc(N)c3c(n2)NC(=O)C3(c2ccc(Cl)cn2)C2CC2)cn2ncnc12 (stereo not shown) [Example 68A, 4-amino-2-(8-butyl-[1,2,4]triazolo[1,5-a]pyrazin-6-yl)-5-(5-chloropyridin-2-yl)-5-cyclopropyl-5H-pyrrolo[2,3-d]pyrimidin-6(7H)-one]	113%
CCCCc1nc(-c2nc(N)c3c(n2)NC(=O)C3(C)c2ccc(Cl)cn2)cn2ncnc12 (stereo not shown) [Example 69A, 4-amino-2-(8-butyl-[1,2,4]triazolo[1,5-a]pyrazin-6-yl)-5-(5-chloropyridin-2-yl)-5-methyl-5H-pyrrolo[2,3-d]pyrimidin-6(7H)-one]	158%
O=C1Nc2nc(-c3cn4ncnc4c(CCCC(F)(F)F)n3)nc(O)c2C1(c1ccc(F)cc1)C1CC1 (stereo not shown) [Example 139B, 5-cyclopropyl-5-(4-fluorophenyl)-4-hydroxy-2-(8-(4,4,4-trifluorobutyl)-[1,2,4]triazolo[1,5-a]pyrazin-6-yl)-5H-pyrrolo[2,3-d]pyrimidin-6(7H)-one]	169%
CCCc1nc(-c2nc(N)c3c(n2)NC(=O)C3(C)c2ccc(Cl)c(F)c2)cn2ncnc12 (stereo not shown) [Example 55B]	99%
CC1(c2ccc(C#N)cn2)C(=O)Nc2nc(-c3cn4ncnc4c(CCC(F)(F)C(F)(F)F)n3)nc(O)c21 (stereo not shown) [Example 131A, 6-(4-hydroxy-5-methyl-6-oxo-2-(8-(3,3,4,4,4-pentafluorobutyl)-[1,2,4]triazolo[1,5-a]pyrazin-6-yl)-6,7-dihydro-5H-pyrrolo[2,3-d]pyrimidin-5-yl)nicotinonitrile]	99%
CC1(c2ccc(Cl)cn2)C(=O)Nc2nc(-c3cn4ncnc4c(CCCC(F)(F)F)n3)nc(N)c21 (stereo not shown) [Example 26A, 4-amino-5-(5-chloropyridin-2-yl)-5-methyl-2-(8-(4,4,4-trifluorobutyl)-[1,2,4]triazolo[1,5-a]pyrazin-6-yl)-5H-pyrrolo[2,3-d]pyrimidin-6(7H)-one]	162%
